Measurements: article PMC12065899 (Communications Biology, 2025)
Where a chain is given by its changes, count along the chain named.

What was measured:
Assay type in all cases: biochemical
[1] = molecular target: T1, HvExoI (β-D-glucan glucohydrolase) (Hordeum vulgare, UniProt Q9XEI3, E245A); test: X-ray crystal structure
T1 sequence (Q9XEI3 26-630 E245A): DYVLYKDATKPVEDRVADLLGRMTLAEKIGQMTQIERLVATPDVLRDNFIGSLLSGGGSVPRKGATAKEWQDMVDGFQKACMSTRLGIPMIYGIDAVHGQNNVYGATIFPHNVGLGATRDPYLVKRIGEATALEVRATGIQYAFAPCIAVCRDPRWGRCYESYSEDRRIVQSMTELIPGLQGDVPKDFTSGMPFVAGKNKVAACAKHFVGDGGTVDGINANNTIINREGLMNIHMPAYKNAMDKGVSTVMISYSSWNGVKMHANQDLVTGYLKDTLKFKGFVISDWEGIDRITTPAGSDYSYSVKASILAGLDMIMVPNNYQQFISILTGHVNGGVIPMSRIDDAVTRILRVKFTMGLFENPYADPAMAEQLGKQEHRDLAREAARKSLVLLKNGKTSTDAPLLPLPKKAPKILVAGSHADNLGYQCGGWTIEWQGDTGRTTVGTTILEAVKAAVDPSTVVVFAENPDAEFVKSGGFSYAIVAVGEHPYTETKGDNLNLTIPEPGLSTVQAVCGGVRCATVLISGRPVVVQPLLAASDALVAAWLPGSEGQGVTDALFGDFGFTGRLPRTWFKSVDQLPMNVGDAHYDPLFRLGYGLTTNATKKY

[2] = molecular target: T2, HvExoI (β-D-glucan glucohydrolase) (Hordeum vulgare, UniProt Q9XEI3); test: competitive inhibition kinetics with 4NP-Glc
T2 sequence (Q9XEI3 26-630): T1 sequence (Q9XEI3 26-630 E245A) with A220E

[3] = molecular target: T1, HvExoI (β-D-glucan glucohydrolase); test: competitive inhibition kinetics with 4NP-Glc

O=[N+]([O-])c1ccc(O[C@H]2O[C@H](CO)[C@@H](O)[C@H](O)[C@H]2F)c([N+](=O)[O-])c1 [2F-DNPGlc, 2,4-dinitrophenyl 2-deoxy-2-fluro-α-D-glucopyranoside]
Ki [1]: 500 nM | Ki [2]: 500 nM

O=C1O[C@H](CO)[C@@H](O)[C@H](O)[C@H]1O [glucono-δ-lactone]
Ki [3]: 103 µM
